Assay results: patent US20210120808A1, “Methods and Systems for Synergistic Continuity Approaches to Treatment and Preservation of Biological Cells” (Membrane Protective Technologies, Inc., priority 2017, published 2021)
Marks after values point to notes of the source that are not given here.

Tested on: phospholipase A2
Assay: Egg yolk coagulation by goat seminal plasma in lactose yolk extender, image analysis with ImageJ
Assay type: biochemical
Experimental: An egg yolk extender was prepared substituting lactose (Trizma base 131.5 mM, Lactose 73 mM 40% v:v egg yolk), without citric acid and pH was adjusted to a standard extender pH of 7. Semen from […] was collected using an artificial vagina. The ejaculate was centrifuged for 5 min at 1000×g. The supernatant (seminal plasma) was removed, then 1 part seminal plasma was added to 1 part extender to create a 20% yolk solution. Extender was either lactose yolk extender alone or lactose yolk extender modified to contain the phospholipase inhibitor curcumin as found in Sea Buckthorn (see Gupta et al. Molecular and Cellular biochemistry October 2006 290:193, hereby incorporated by reference). Representative pictures were taken of each solution, then the 22° C. solutions of seminal plasma plus the various extenders were frozen to −80° C. and allowed to remain frozen for >24 hrs. Samples were thawed by incubation in 37° C. water bath for 1 minute, then representative pictures were taken. For each picture, the negative space (the white area visible between droplets) was measured using ImageJ software by adjusting the image threshold using “Auto” setting then analyzing particle size (see Rasband, W. S., ImageJ, U.S. National Institutes of Health, Bethesda, Md., USA, https://imagej.nih.gov/ij/, 1997-2018, hereby incorporated by reference). The mean particle size was recorded and the images were analyzed in triplicate. […] The left column is a non-limiting example of a pictorial representation of the lactose yolk solution without seminal plasma (control) pre-freezing and post-freezing. One observes that there is no significant change in the size of the egg yolk lipid droplets, and no coagulation has occurred.

SMILES: COc1cc(/C=C/C(=O)CC(=O)/C=C/c2ccc(O)c(OC)c2)ccc1O [curcumin]
- coagulation of egg yolk particles compared to Control (area of coagulation, seminal plasma with vs without inhibitor, FIG. 8): statically significant decrease
- Post-Thaw Area (frozen to −80° C. >24 hrs, thawed at 37° C., single pygmy buck, p < 0.05): 35.6* pixel^2
- Pre-Freeze Area (goat seminal plasma plus lactose yolk extender, 0.2% curcumin, single pygmy buck, p < 0.05): 26.3* pixel^2
- pre-freeze coagulation (pre-freeze seminal plasma with 0.2% plant-derived curcumin vs without curcumin): less coagulated
- Coagulation rank (single pygmy buck, untreated seminal plasma ranks 2): 1
